For data set [1], the system named is COX10-deficient fibroblasts. The data set is described as follows: Cell viability by Calcein AM in mitochondrial stressor media. Format: cell-based, human. The settings on record: FIG. 2B. The protocol:
(§1) Fibroblasts previously derived from four patients with primary mitochondrial disease (Surf1, Complex I, Cox10, Polg), three patients with NGLY1 deficiency and four normal controls were used for the study. All samples were obtained with informed consent and approved by the Stanford IRB. Fibroblasts were maintained in DMEM medium containing 8.3 mM glucose and supplemented with 10% fetal bovine serum (FBS)(Fisher Scientific), 1% Penicillin-Streptomycin (10,000 U/mL)(Life Technologies), 1% glutaMAX (Life Technologies), 1% uridine (5 mg/ml) and 1% pyruvate (11 mg/ml) at 37° C., 5% CO2. For the screening of various compounds, 15×10^3 cells/500 ul media were seeded in quadruplets on 24 well microtiter plates. The following day, the medium was removed, wells washed with PBS and replaced with a mitochondrial stressor media containing DMEM, 1% Penicillin-Streptomycin (10,000 U/mL)(Life Technologies), 10% FCS (Fisher Scientific), 1 mM Galactose (Sigma Aldrich), and 25 μM sodium azide with or without the following compounds: 1 mM AICAR (Medchem Express), 1 mM Metformin (Sigma Aldrich), 100 μM PT1 (Santa Cruz Biotechnology), 100 μ[…] Express). Following treatment with the various compounds, tissue cultures were analyzed for growth, oxygen consumption rate, and ATP levels. Methods: Cell growth was measured by a fluorometric method using Calcein AM (Anaspec). Mitochondrial stressor media was removed, wells washed with PBS and then incubated with 500 ul/well of 800 nM Calcein AM in PBS for 30 min at 37 C, 5% CO2. Cell viability was measured by values obtained using a 485 nm excitation with the Flouroskan Ascent Microplate Fluorometer (Thermo Scientific).

The subject of data set [2] is POLG-deficient fibroblasts. The data set is described as above. Format: cell-based, human. Conditions: FIG. 2D. The protocol:
as §1

Data set [3] deals with SURF1-deficient fibroblasts. The data set is described as above. It is filed as cell-based, human. The settings on record: SURF1-deficient fibroblasts; FIG. 2A. The procedure:
as §1

In the next data set the test system is CI-deficient fibroblasts. Nature of the data set: Cellular morphology by phase-contrast microscopy. Format: cell-based, human. The settings on record: vs untreated. The text has this: (§2) Fibroblasts in tissue culture were visualized by phase-contrast microscopy with a Leica DM IRB microscope at ×10 magnification, and images were taken with the Hamamatsu ORCA-ER camera.

Data set [4] has as its system COX10-deficient fibroblasts. Nature of the data set: Cellular morphology by phase-contrast microscopy. Format: cell-based, human. Conditions: vs untreated.
Description: as §2

In data set [5] the test system is NGLY1 deficient fibroblasts. Nature of the data set: Cellular morphology by phase-contrast microscopy. Format: cell-based, human. Conditions: NGLY-1 deficient fibroblasts; vs untreated.
Description: as §2

The test system of data set [6] is POLG-deficient fibroblasts. Nature of the data set: Cellular morphology by phase-contrast microscopy. It is filed as cell-based, human. Conditions: vs untreated.
Description: as §2

In data set [7] the test system is SURF1-deficient fibroblasts. The data set is described as follows: Cellular morphology by phase-contrast microscopy. It is filed as cell-based, human. Conditions: vs DMSO.
Description: as §2

The next data set relates to PGC-1α. Nature of the data set: Gene expression after PT1 treatment. It is filed as cell-based, human. Conditions: 48 hr treatment with PT1; FIG. 5B.
The subject of data set [8] is NGLY1 deficient fibroblasts. Nature of the data set: ATP levels, CellTiter-Glo ATP Assay. Format: cell-based, human. Conditions: PT1 48 hrs vs DMSO. The protocol: (§3) Methods: SURF1, POLG, and NGLY1 patient cells were supplemented with PT1 or DMSO (untreated control) for 48 hrs (n=3) and ATP levels measured by the CellTiter-Glo ATP Assay or for 72 hrs (n=3) and ROS levels were measured by the CellROX Deep Red Flow Cytometry Assay. Results were normalized to total protein concentration. Data are represented as the mean±standard error of the mean. Statistical significance was measured to p<0.05.

For data set [9], the system named is POLG deficient fibroblasts. The data set is described as follows: ATP levels, CellTiter-Glo ATP Assay. It is filed as cell-based, human. The settings on record: PT1 48 hrs vs DMSO. The procedure: as §3
Data set [10] concerns SURF1 deficient fibroblasts. The data set is described as follows: ATP levels, CellTiter-Glo ATP Assay. Format: cell-based, human. Conditions: PT1 48 hrs vs DMSO. The protocol:
as §3

Data set [11] deals with NGLY1 deficient fibroblasts. The data set is described as follows: Lipofuscin levels. Format: cell-based, human. The settings on record: FIG. 8B.
Data set [12] relates to sodium iodate (SI) induced AMD model. The data set is described as follows: Sodium iodate (SI) induced AMD model: funduscopy, H&E retinal sections, ONL thickness, ERG. Format: in vivo, mice. The procedure: Methods: To generate an AMD model, mice were treated with 100 mg/kg of PT1 (or vehicle) 24 hrs and 12 hrs prior to SI (or vehicle) treatment, then treated every 24 hrs for 3 days post-SI. Both PT1 and SI were delivered by intraperitoneal (IP) injections and animals were phenotyped 3 days post-SI administration. Mice were anesthetized and their pupils dilated using 1% atropine sulfate, 2.5% phenylephrine hydrochloride, and 0.5% proparacaine hydrochloride. Funduscopy was performed using the Micron III small animal retinal imaging AD camera (Phoenix Research Laboratories, INC). Retinal function was evaluated by recording of dark- and light-adapted ERG (Espion E2 System, Diagnosys LLC). Mice were dark adapted overnight before ERG recording, and all procedures were performed in the dark or under dim red light. Mice were anesthetized and their pupils dilated as described above. For the ERG recordings, electrodes were placed on the center of cornea. A ground needle electrode was placed in the base of the tail, and reference needle electrode was placed subdermally between the eyes. The a-wave amplitude was measured from the baseline to the trough of the a-wave, and b-wave amplitude was measured from the trough of the a-wave to the peak of the b-wave.

For another data set, the system named is ischemic stroke model. The data set is described as follows: Ischemic stroke model, transient middle cerebral artery occlusion, TTC staining. It is filed as in vivo, mice. Conditions: PT1 100 mg/kg IP vs vehicle. The procedure: Methods: To generate an ischemic stroke model, ischemic lesions were induced by transiently occluding the middle cerebral artery for 45 minutes, followed by reperfusion. Mice were then injected intraperitoneally with either 100 mg/kg of PT1 or vehicle in two doses, 1 hour and 24 hours post-occlusion, and sacrificed one hour later for terminal tissue collection. Isolated brains were placed in cold saline for 20 minutes, sliced in seven coronal slices (2 mm thick), and stained in a 1.0% 2,3,5-triphenyltetrazolium chloride (TTC) solution in saline at 37° C. for 30 minutes. The stained brain tissues were fixed in 10% formalin in phosphate-buffered saline. The images were captured using a CCD camera (Panasonic Corporation, Japan) and the unstained damaged areas were defined as infarcted tissue and were quantified using Image Pro Plus 4.1 software (Media Cybernetics, Silver Spring, MD).

Molecules are shown by their SMILES. Entries after “also recorded” stand apart in the source; their conditions may differ.

For `Cc1cc(-c2ccc(C=C3SC(=S)N(c4ccc(Cl)c(C(=O)O)c4)C3=O)o2)c([N+](=O)[O-])cc1C` [PT1], the survival / viability result was “improves survival; also recorded: significantly improved survival” in [1], “improves survival; also recorded: significantly improved survival” in [2] and “largest improvement” in data set [3]. Moreover, the cellular morphology entry is on record as “cell morphology improved” in the data set on CI-deficient fibroblasts; “cell morphology improved” in data set [4]; “cell morphology improved” in data set [5]; “cell morphology improved” in data set [6]; “improved cellular morphology; also recorded: cell morphology improved” in data set [7]. Also, in the data set on PGC-1α, the “increase in expression of PGC-1α” value was 2.4 fold. The “increase in ATP production / content” value came out at 40% in data set [8], 36% in data set [9] and 35% in data set [10]. The “reduction of lipofuscin levels” value in [11] is on record as “approximately 36%”. Also, the “funduscopy, signs of retinal degeneration (white deposits)” value in data set [12] (+SI, +PT1 vs +SI, 100 mg/kg IP, FIG. 9A, 100 mg/kg) is reported as “improved signs of retinal degeneration; also recorded: Fewer white deposits”. Besides, the “H&E retinal sections: ONL thinning” value in data set [12] (+SI, +PT1 vs +SI, FIG. 9B) is on record as “protection against ONL thinning; also recorded: protects against ONL thinning”. In addition, the “H&E retinal sections: melanin debris” value in [12] (+SI, +PT1 vs +SI, FIG. 9B) is given as “decreases melanin debris”. Also, the “H&E retinal sections: photoreceptor IS/OS morphology” value in [12] (+SI, +PT1 vs +SI, FIG. 9B) is on record as “prevents alterations in photoreceptor IS/OS morphology”. Besides, in [12] (+SI, +PT1 vs +SI, FIG. 9C), the ONL thickness result is listed as “greater thickness; also recorded: significantly improved”. In data set [12] (+SI, +PT1 vs +SI, FIG. 9D), the “electroretinography, rod responses (scotopic a-wave and b-wave)” value was “improved electrical response; also recorded: significantly increased rod responses”. The “ONL thickness, PT1 treatment alone” value in [12] (−SI, +PT1 vs −SI) is on record as “does not alter ONL thickness”. In addition, the “funduscopy, PT1 treatment alone” value in data set [12] (−SI, +PT1 vs −SI) is “similar, normal tissue; also recorded: does not alter funduscopy results”. In the data set on ischemic stroke model (FIG. 10A), the “percent of infarct tissue in brain” value was “marked improvement”. In addition, the “infarcted regions in TTC-stained brain slices” value in the data set on ischemic stroke model (FIGS. 10B-10C, 100 mg/kg) is listed as “much lower amounts of ischemic tissue; also recorded: reduction in size of the infarcted regions”.

(Values after patent publication US12377077B2, “Methods and formulations to treat mitochondrial dysfunction” (The Board of Trustees of the Leland Stanford Junior …, priority 2018, dated 2025).)
